From patent US20110151020A1, “ACTIVE SUBSTANCE COMBINATION WITH GEMCITABINE FOR THE TREATMENT OF EPITHELIAL CANCER” (priority 2008, published 2011)

Columns and labels:
pancreatic CSC spheres = assay: CSC-enriched tumour sphere assay; assay type: cell-based, human; details: ultra low adhesion 6-well plates
Method: First, pancreatic CSC were clonally expanded as CSC-enriched spheres (FIGS. 18C1-18C5). Floating spheres were treated in ultra low adhesion 6-well plates. After completion of the treatment, five randomly selected high-power fields were analyzed.
(§1) Human pancreatic cancer cell line. The highly metastatic human pancreatic cell line L3.6pl was maintained in DMEM medium (Invitrogen, Karlsruhe, Germany) with 12% Fetal Calf Serum (Biochrom, Berlin, Germany), Glutamax (Invitrogen), non-essential amino acids, and vitamins (all from PAN, Aidenbach, Germany) (Hermann et al., 2007, supra). Cultures were kept no longer than 4 weeks after recovery from frozen stocks. CSC spheres were cultured in DMEM-F12 supplemented with B27 (Gibco, Karlsruhe, Germany) and FGF-2 (PeproTech EC, London, United Kingdom) (Hermann et al., 2007, supra).

[1] = tested on: CD133+ pancreatic cancer stem cells (L3.6pl cells); assay: CD133 content by flow cytometry in L3.6pl pancreatic cancer cells; assay type: cell-based, human; details: 48 hours of therapy; Gemcitabine 100 ng/ml
Method: In this experiment, potentially effective substances for the targeted elimination of CD133^+ pancreatic cancer stem cells (CSC) were screened by means of flow cytometry following 48 hours of therapy. […] As a Gemcitabine concentration of 100 ng/ml was the lowest concentration capable of achieving a strong relative enrichment for CD133^+ cells through depletion of CD133^− cells, this concentration was chosen for subsequent experiments.
as §1
Cytometry. Pancreatic CSC were identified by CD133/1-APC or CD133-PE (Miltenyi, Bergisch-Gladbach, Germany) (Hermann et al., 2007, supra). Side population experiments were performed as described by Goodell et al. (1996) (see Goodell et al., 1996, J Exp Med 183, 1797-1806) and cells were identified by exclusion of the vital dye Hoechst 33342. To detect activation of the PI3K/Akt/mTOR pathway by means of the phosphorylation status of the s6 ribosomal protein (s6rp), cells cultivated with standard medium were stained with a rabbit anti-phospho-S6 ribosomal protein antibody (Cell Signalling Technology, Danvers, Mass.).
In vitro treatment of pancreatic cancer cells. […] For the evaluation of the in vivo tumorigenicity, […] L3.6pl cells were pretreated with the respective regimen and the remaining viable cells were orthotopically implanted into the pancreas of nude mice and evaluated on day 35. For the systemic infusion assay, cells were labelled with the Qtracker 800 labelling kit (Invitrogen) according to the manufacturer's instructions, and 5×10^5 cells were injected intravenously into mice. After 4 weeks, explanted lungs were scanned for metastases with a near-infrared imaging platform (Odyssey, Li-cor, Lincoln, Nebr.). Positive signals were verified by histology (H&E staining).
Using SB431542, a specific inhibitor of the receptors for Nodal and Activin, ALK-4 and -7 respectively, it was investigated whether the content of the CD133(+) population is affected by inhibition of Activin/Nodal signaling. As mutations affecting the TGF-superfamily pathway are very common in pancreatic neoplasms, pancreatic cell lines harboring different mutations in this pathway were screened (Table 1).

[2] = tested on: orthotopically implanted tumour cells; assay: In vivo treatment of orthotopic tumours with Gemcitabine and SB431542; set-up: species or system mice
Method: Seven days after orthotopic implantation of tumour cells, therapy with either Gemcitabine alone or in combination with targeted Nodal/Activin inhibition by SB431542 was initiated. The double combination therapy was stopped after 14 days of treatment, the single Gemcitabine treatment was continued until sacrifice of the animals. 35 days after tumour cell treatment, PET scans were done and evaluation of tumour volume was performed on day 42.

[3] = tested on: primary human pancreatic cancer tissue; assay: In vivo treatment of implanted patient pancreatic tumor tissue with gemcitabine plus SB431542; set-up: species or system mice; details: treatment from day 7, assessed day 28
Method: FIG. 33: In vivo treatment with the Alk4/7 inhibitor SB431542. This illustrates Nodal/Activin inhibition to eliminate primary human pancreatic CSC in vivo. Tumor tissue from patient with pancreatic cancer was implanted into immunocompromised mice. Treatment was started on day 7 after implantation. Mice were randomized to gemcitabine alone or gemcitabine plus SB431542. Tumor growth was assessed on day 28.

## Nc1ccn(C2OC(CO)C(O)C2(F)F)c(=O)n1 (centres unmarked) [Gemcitabine, 4-amino-1-[3,3-difluoro-4-hydroxy-5-(hydroxymethyl)tetrahydrofuran-2-yl]-1H-pyrimidin-2-one]
Pancreatic CSC spheres
  tumour spheres / CD133+ cells in CSC-enriched spheres: marked relative increase of CD133^+ cells
[1]
  CD133+ cell content: marked enrichment
[2]; mouse, in vivo
  tumour size: reduction of tumour size
[2]; therapy from day 7, combination 14 days, PET day 35, volume day 42
  tumour formation / tumour incidence: unaffected
[3]
  tumor response / regression: strong response
